Data as given in patent US12194039B2, “Methods of treating heart failure by administering omecamtiv mecarbil” (Cytokinetics, Inc., priority 2020, dated 2025).
Read-outs that look alike come from different tables or passages of the source.

System: patients with HFrEF by ejection fraction quartile
Assay type: in vivo, human
Set-up: Change from baseline in KCCQ Total Symptom Score, least square mean / KCCQ Total Symptom Score Inpatient, Treatment Difference, least squares mean / KCCQ Total Symptom Score Outpatient, Treatment Difference, least squares mean / KCCQ Total Symptom Score, Treatment Difference, least squares mean: scale not given here
Settings: for Troponin I (Ratio) / Troponin I, Treatment Difference (95% CI) / Creatinine, Treatment Difference / Heart rate, Treatment Difference / KCCQ Total Symptom Score, Treatment Difference, least squares mean / NT-proBNP (Ratio) / Potassium, Treatment Difference / Systolic BP, Treatment Difference / KCCQ Total Symptom Score Inpatient, Treatment Difference, least squares mean / KCCQ Total Symptom Score Outpatient, Treatment Difference, least squares mean: baseline to Week 24; for Change from baseline in KCCQ Total Symptom Score, least square mean: Week 24
Protocol: Continuous variables were summarized via means and standard deviations or medians and interquartile ranges, as appropriate. Categorical variables are summarized with counts and percentages. Tests of trend across categories were conducted via linear regression, Cuzick's non-parametric trend test, and Chi-squared tests of trend, respectively. Treatment effects on continuous outcomes were assessed via linear regression models adjusted for the corresponding baseline value of the parameter of interest. Survival analyses were conducted using Poisson regression models to estimate incidence rates, rate differences, and rate ratios and Cox proportional hazards models to estimate hazard ratios. […] To allow for potentially non-linear associations between ejection fraction and time-to-event outcomes, restricted cubic splines were utilized in the Poisson regression models with 3 knots. All analyses were conducted using STATA 16 (College Station, Tex.). P-values <0.05 were considered statistically significant. Due to the exploratory nature of these analyses, no adjustments were made for multiple comparisons.
Within each randomization setting subgroup least squares mean is from the mixed model which includes baseline total symptom score value, region, baseline eGFR, scheduled visit, treatment group and interaction of treatment with scheduled visit as covariates. Influence of Ejection Fraction on the Treatment Effect of Omecamtiv Mecarbil

`COC(=O)N1CCN(Cc2cccc(NC(=O)Nc3ccc(C)nc3)c2F)CC1` [omecamtiv mecarbil] was tested, and the “Troponin I (Ratio)” value (EF 29-32%, vs placebo) was 1.27, the “Troponin I, Treatment Difference (95% CI)” value (EF 29-32%, vs placebo) was 4 (3, 5) ng/L and the “Adjudicated First Major Cardiac Ischemic Events, %” value (EF 33%, OM group) was 6.5%. The “Adjudicated First Stroke, %” value (EF 33%, OM group) was 1.8%, the “Adverse Event: Ventricular Tachyarrhythmia, %” value (EF 33%, OM group) was 6.4% and the “Any treatment Emergent Serious Adverse Events, %” value (EF 33%, OM group) was “(55.5%)”. The “Positively Adjudicated Myocardial Infarction, %” value (EF 33%, OM group) was 3.8%, the “Serious Adverse Event: Ventricular Arrhythmia Requiring Treatment, %” value (EF 33%, OM group) was 2.5% and the “Adjudicated First Major Cardiac Ischemic Events, Relative Risk” value (EF 33%, OM vs placebo) was 0.99. The “Adjudicated First Stroke, Relative Risk” value (EF 33%, OM vs placebo) was 0.77, the “Adverse Event: Ventricular Tachyarrhythmia, Relative Risk” value (EF 33%, OM vs placebo) was 0.88 and the “Any treatment Emergent Serious Adverse Events, Relative Risk” value (EF 33%, OM vs placebo) was 1.02. The “Positively Adjudicated Myocardial Infarction, Relative Risk” value (EF 33%, OM vs placebo) was 1.02, the “Serious Adverse Event: Ventricular Arrhythmia Requiring Treatment, Relative Risk” value (EF 33%, OM vs placebo) was 1.11 and the “1st HF Hospitalization (%)” value (EF ≤22%, OM group) was “(30%)”. The “1st HF Hospitalization Rate” value (EF ≤22%, OM group) was 20.9 per 100 patient years, the “1st HF Hospitalization n/N” value (EF ≤22%, OM group) was 340/1127 and the “First HF Event (%)” value (EF ≤22%, OM group) was “(31%)”. The “First HF Event Rate” value (EF ≤22%, OM group) was 21.7 per 100 patient years, the “First HF Event n/N” value (EF ≤22%, OM group) was 351/1127 and the “Primary Outcome (%)” value (EF ≤22%, OM group) was “(41%)”. For the same compound, the “Primary Outcome Rate” value (EF ≤22%, OM group) was 28.3 per 100 patient years, the “Primary Outcome n/N” value (EF ≤22%, OM group) was 457/1127 and the “Total HF Events, Events” value (EF ≤22%, OM group) was 719. The “Total HF Events, Rate” value (EF ≤22%, OM group) was 37.1 per 100 pt-yrs, the “Total HF Hospitalizations, Events” value (EF ≤22%, OM group) was 679 and the “Total HF Hospitalizations, Rate” value (EF ≤22%, OM group) was 35.1 per 100 pt-yrs. The “1st HF Hospitalization ARR” value (EF ≤22%, OM vs placebo) was 6.1 per 100 patient years, the “1st HF Hospitalization HR (95% CI)” value (EF ≤22%, OM vs placebo) was 0.82 (0.71, 0.94) and the “First HF Event ARR” value (EF ≤22%, OM vs placebo) was 6.6 per 100 patient years. The “First HF Event HR (95% CI)” value (EF ≤22%, OM vs placebo) was 0.81 (0.70, 0.93), the “Primary Outcome ARR” value (EF ≤22%, OM vs placebo) was 7.4 per 100 patient years and the “Primary Outcome HR (95% CI)” value (EF ≤22%, OM vs placebo) was 0.83 (0.73, 0.95). The “Total HF Events, ARR” value (EF ≤22%, OM vs placebo) was 11.3 per 100 pt-yrs, the “Total HF Events, Ratio (95% CI)” value (EF ≤22%, OM vs placebo) was 0.83 (0.70, 1.01) and the “Total HF Hospitalizations, ARR” value (EF ≤22%, OM vs placebo) was 9.9 per 100 pt-yrs. The “Total HF Hospitalizations, Ratio (95% CI)” value (EF ≤22%, OM vs placebo) was 0.84 (0.70, 1.01), the “Creatinine, Treatment Difference” value (EF ≤22%, vs placebo) was -0.01 mg/dL and the “Heart rate, Treatment Difference” value (EF ≤22%, vs placebo) was −1.6 bpm. The “KCCQ Total Symptom Score, Treatment Difference, least squares mean” value (EF ≤22%, vs placebo) was “+1.6”, the “NT-proBNP (Ratio)” value (EF ≤22%, vs placebo) was 0.78 and the “Potassium, Treatment Difference” value (EF ≤22%, vs placebo) was 0.01 mmol/L. The “Systolic BP, Treatment Difference” value (EF ≤22%, vs placebo) was 0.9 mmHg, the “Troponin I (Ratio)” value (EF ≤22%, vs placebo) was 1.19 and the “Troponin I, Treatment Difference (95% CI)” value (EF ≤22%, vs placebo) was 5 (4, 6) ng/L. For the same compound, the “1st HF Hospitalization (%)” value (EF ≥33%, OM group) was 26%, the “1st HF Hospitalization Rate” value (EF ≥33%, OM group) was 15.5 per 100 patient years and the “1st HF Hospitalization n/N” value (EF ≥33%, OM group) was 228/892. The “All-cause Death (%)” value (EF ≥33%, OM group) was 22%, the “All-cause Death Rate” value (EF ≥33%, OM group) was 11.8 per 100 patient years and the “All-cause Death n/N” value (EF ≥33%, OM group) was 200/892. The “First HF Event (%)” value (EF ≥33%, OM group) was 26%, the “First HF Event Rate” value (EF ≥33%, OM group) was 16.2 per 100 patient years and the “First HF Event n/N” value (EF ≥33%, OM group) was 236/892. For the same compound, the “Primary Outcome (%)” value (EF ≥33%, OM group) was 33%, the “Primary Outcome Rate” value (EF ≥33%, OM group) was 20.5 per 100 patient years and the “Primary Outcome n/N” value (EF ≥33%, OM group) was 298/892. For the same compound, the “Total HF Events, Events” value (EF ≥33%, OM group) was 483, the “Total HF Events, Rate” value (EF ≥33%, OM group) was 28.5 per 100 pt-yrs and the “Total HF Hospitalizations, Events” value (EF ≥33%, OM group) was 449. For the same compound, the “Total HF Hospitalizations, Rate” value (EF ≥33%, OM group) was 26.5 per 100 pt-yrs, the “1st HF Hospitalization ARR” value (EF ≥33%, OM vs placebo) was −1.2 per 100 patient years and the “1st HF Hospitalization HR (95% CI)” value (EF ≥33%, OM vs placebo) was 1.03 (0.85, 1.24). For the same compound, the “All-cause Death ARR” value (EF ≥33%, OM vs placebo) was −0.1 per 100 patient years, the “All-cause Death HR (95% CI)” value (EF ≥33%, OM vs placebo) was 0.98 (0.80, 1.20) and the “First HF Event ARR” value (EF ≥33%, OM vs placebo) was −1.3 per 100 patient years. For the same compound, the “First HF Event HR (95% CI)” value (EF ≥33%, OM vs placebo) was 1.04 (0.86, 1.25), the “Primary Outcome ARR” value (EF ≥33%, OM vs placebo) was −0.4 per 100 patient years and the “Primary Outcome HR (95% CI)” value (EF ≥33%, OM vs placebo) was 0.99 (0.84, 1.16). The “Total HF Events, ARR” value (EF ≥33%, OM vs placebo) was −4.7 per 100 pt-yrs, the “Total HF Events, Ratio (95% CI)” value (EF ≥33%, OM vs placebo) was 1.13 (0.90, 1.43) and the “Total HF Hospitalizations, ARR” value (EF ≥33%, OM vs placebo) was −3.6 per 100 pt-yrs. The “Total HF Hospitalizations, Ratio (95% CI)” value (EF ≥33%, OM vs placebo) was 1.12 (0.89, 1.43), the “Creatinine, Treatment Difference” value (EF ≥33%, vs placebo) was 0.02 mg/dL and the “Heart rate, Treatment Difference” value (EF ≥33%, vs placebo) was −1.1 bpm. The “KCCQ Total Symptom Score, Treatment Difference, least squares mean” value (EF ≥33%, vs placebo) was −1.0, the “NT-proBNP (Ratio)” value (EF ≥33%, vs placebo) was 0.97 and the “Potassium, Treatment Difference” value (EF ≥33%, vs placebo) was 0.02 mmol/L. The “Systolic BP, Treatment Difference” value (EF ≥33%, vs placebo) was −1.2 mmHg, the “Troponin I (Ratio)” value (EF ≥33%, vs placebo) was 1.27 and the “Troponin I, Treatment Difference (95% CI)” value (EF ≥33%, vs placebo) was 3 (2, 4) ng/L. The “Change from baseline in KCCQ Total Symptom Score, least square mean” value (shortened to “Change from baseline”) (Inpatient, EF 23-28%) was 21.51, the “KCCQ Total Symptom Score Inpatient, Treatment Difference, least squares mean” value (Inpatient, EF 23-28%, vs placebo) was “+0.2” and the “Change from baseline” value (Inpatient, EF 29-32%) was 22.34. For the same compound, the “KCCQ Total Symptom Score Inpatient, Treatment Difference, least squares mean” value (Inpatient, EF 29-32%, vs placebo) was “+4.8”, the “Change from baseline” value (Inpatient, EF ≤22%) was 27.70 and the “KCCQ Total Symptom Score Inpatient, Treatment Difference, least squares mean” value (Inpatient, EF ≤22%, vs placebo) was “+4.9”. For the same compound, the “Change from baseline” value (Inpatient, EF ≥33%) was 22.09, the “KCCQ Total Symptom Score Inpatient, Treatment Difference, least squares mean” value (Inpatient, EF ≥33%, vs placebo) was −0.0 and the “Change from baseline” value (Outpatient, EF 23-28%) was 5.61. The “KCCQ Total Symptom Score Outpatient, Treatment Difference, least squares mean” value (Outpatient, EF 23-28%, vs placebo) was −0.6, the “Change from baseline” value (Outpatient, EF 29-32%) was 5.30 and the “KCCQ Total Symptom Score Outpatient, Treatment Difference, least squares mean” value (Outpatient, EF 29-32%, vs placebo) was −0.8. The “Change from baseline” value (Outpatient, EF ≤22%) was 7.08, the “KCCQ Total Symptom Score Outpatient, Treatment Difference, least squares mean” value (Outpatient, EF ≤22%, vs placebo) was “+0.7” and the “Change from baseline” value (Outpatient, EF ≥33%) was 5.18. The “KCCQ Total Symptom Score Outpatient, Treatment Difference, least squares mean” value (Outpatient, EF ≥33%, vs placebo) was −1.5, the “Increase in troponin I, median” value (across the EF quartiles, limit of detection 6 ng/L, upper reference limit 40 ng/L) was 3 to 5 ng/L and the “Incidence of adverse events, omecamtiv mecarbil vs placebo” value (by EF quartile, result in words) was “no significant differences”. The “Effect on symptoms as assessed by the KCCQ-TSS as a function of EF” value (inpatient or outpatient settings, result in words) was “no consistent beneficial effect”, the “Absolute risk reduction, primary composite endpoint” value (lowest ejection fraction quartile) was 7.4 events per 100 patient-years and the “Relative risk reduction, primary composite endpoint” value (lowest ejection fraction quartile (EF ≤22%)) was 17%. For the same compound, the “Number-needed-to-treat to prevent an event” value (over 3 years, lowest ejection fraction quartile) was 11.8, the “Effect on cardiovascular death” value (overall population and as a function of baseline ejection fraction, result in words) was “no overall effect” and the “Primary endpoint, hazard ratio” value (patients with EF ≤28%, vs placebo) was 0.84. The “Primary endpoint, hazard ratio” value (patients with EF>28%, vs placebo) was 1.04, the “Reduction in time-to-first heart failure event or cardiovascular death (primary endpoint)” value (patients with ejection fraction ≤28% (below the median)) was 16% and the “Effect on all-cause mortality” value (result in words) was “no effect”. The “Relative risk reduction, primary composite endpoint” value (second lowest ejection fraction quartile (EF 23-28%)) was 15%, the “Incidence of adjudicated stroke” value (vs placebo, result in words) was “apparent reduction” and the “Change of NT-proBNP” value (week 24, highest EF quartile) was 3%. For the same compound, the “Reduction of NT-proBNP” value (week 24, lowest EF quartile (≤22%)) was 22%.
